Results: patent US9084792B2 (Zhejiang Charioteer Pharmaceutical Co., Ltd., priority 2009, dated 2015)

Key:
[1] = thermal decomposition point; format: physicochemical
Protocol: (1) It has the property required for large-scale preparation of drugs: for example, it has thermal decomposition point of over 250° C., and good fluidity and bulk density, which are in favor of drug preparation and industrial production on a large scale.

[2] = stability test of crystalline form on storage; format: physicochemical; details: room temperature, relative humidity of less than 50%
Description: (2) It has good stability of crystalline form. […] It can be stored in the dark, cool and dry place for a long time.

Question: What does the source list for `Nc1nc2c(ncn2COCCO)c(=O)[nH]1.Nc1nc2c(ncn2COCCO)c(=O)[nH]1.Nc1nc2c(ncn2COCCO)c(=O)[nH]1.O.O` [acyclovir 2/3 hydrate]?
Answer: thermal decomposition point [1]: over 250 °C; storage time [2]: more than one year; content during the storage time ([2]; more than one year): the content does not reduce; crystalline form during the storage time ([2]; more than one year): the crystalline form remains the same
